# Results as given in patent publication US20100210464A1, “HERBICIDAL COMPOSITION AND METHOD OF USE THEREOF” (SYNGENTA CROP PROTECTION, INC., priority 2007, published 2010).
# Marks after values point to notes of the source that are not given here.
# Assays:
# Type in all cases: in vivo
# [1] = test system: goosegrass (Eleusine indica); experiment: Glasshouse trial, control of goosegrass, spray applied pre-emergence (Example 1); settings: for Actual weed control, Plus Mesotrione at 100 g ai/ha: X-77 0.1% v/v
# Method: (§1) In the following tests, herbicides were applied at reduced field rates because herbicide effects are magnified in a glasshouse environment. The rates tested were selected to give between about 50 and 70% control with herbicides applied alone, so that any synergistic effect could be readily detected when testing mixtures. A glasshouse trial was carried out. Goosegrass seeds were sown into standard glasshouse potting mix (1:1 v/v Promix:Vero sand soil) contained in 10 cm square plastic pots. Treatments were replicated three times. Mesotrione (in the form Callisto® 480SE) was applied pre-emergence to goosegrass (Eleusine indica) at 100 g ai/ha with or without pendimethalin (in the form Prowl® H2O). When used, pendimethalin was applied at a rate of 140 g ai/ha or 280 g ai/ha. The adjuvant system was X-77 at 0.1% v/v in deionised water. 200 litres of herbicide/adjuvant system was used per hectare. General weed control was evaluated at 7 and 14 days after treatment (DAT). It is noted that all herbicides were applied at reduced field rates because herbicide effects are magnified in a glasshouse environment. Rates were chosen to give a 50 to 70% level of control with herbicides applied alone as this allows for detection of any synergistic effect when tank mixtures are used. The results were evaluated using the Colby formula. The expected result for (A+B) is (A+B)−(A×B/100) where A and B are the ‘observed’ results for A and B on their own.
# [2] = test system: goosegrass (Eleusine indica); experiment: Glasshouse trial, control of goosegrass, granules applied pre-emergence (Example 2)
# Method: as §1, with “A” for “In the following tests, herbicides were applied at reduced field rates because herbicide effects are magnified in a glasshouse environment. The rates tested were selected to give between about 50 and 70% control with herbicides applied alone, so that any synergistic effect could be readily detected when testing mixtures. A”, “own. […] A glasshouse trial was carried out as described in Example 1, except that the herbicides were applied in the form of granules. Mesotrione granules were made by spraying a mesotrione millbase (28% SC formulation) onto a granular carrier, Agsorb LVM-GA 24/48. Pendimethalin granules were made by adding Prowl® 3.3EC (37.4%) and Agsorb LVM-GA 24/48 granules into a tumbler, followed by spraying with a binder, HiSil 233. For testing mixtures of mesotrione and pendimethalin, the appropriate number of granules for each herbicide were weighed and thoroughly mixed. […]” for “own.”
# [3] = test system: white clover (Trifolium repens); experiment: Glasshouse trial, control of white clover, granules applied post-emergence (Example 4); settings: pendimethalin granules 1120 g ai/ha + mesotrione granules 200 g ai/ha
# Method: 200 litres of herbicide/adjuvant system was used per hectare. General weed control was evaluated at 7 and 14 days after treatment (DAT). It is noted that all herbicides were applied at reduced field rates because herbicide effects are magnified in a glasshouse environment. Rates were chosen to give a 50 to 70% level of control with herbicides applied alone as this allows for detection of any synergistic effect when tank mixtures are used. The results were evaluated using the Colby formula. The expected result for (A+B) is (A+B)−(A×B/100) where A and B are the ‘observed’ results for A and B on their own. […] A glasshouse trial was carried out as described in Example 1, except that the herbicides were applied in the form of granules. Mesotrione granules were made by spraying a mesotrione millbase (28% SC formulation) onto a granular carrier, Agsorb LVM-GA 24/48. Pendimethalin granules were made by adding Prowl® 3.3EC (37.4%) and Agsorb LVM-GA 24/48 granules into a tumbler, followed by spraying with a binder, HiSil 233. For testing mixtures of mesotrione and pendimethalin, the appropriate number of granules for each herbicide were weighed and thoroughly mixed. Granules were weighed for each individual pot using an amount equivalent to the rates listed in Table 2, and, based on a pot surface area of 10 cm^2, were carefully hand sprinkled on the emerged plants and pot surface. […]
# [4] = pendimethalin granules 140 g ai/ha + mesotrione granules 100 g ai/ha
# [5] = pendimethalin granules 140 g ai/ha + mesotrione granules 200 g ai/ha
# [6] = pendimethalin granules 280 g ai/ha + mesotrione granules 100 g ai/ha
# [7] = pendimethalin granules 280 g ai/ha + mesotrione granules 200 g ai/ha
structure (smiles),measurement,setting,value
"CCC(CC)Nc1c([N+](=O)[O-])cc(C)c(C)c1[N+](=O)[O-] [Pendimethalin, N-(1-ethylpropyl)-3,4-dimethyl-2,6-dinitrobenzenamine]","Expected weed control (Colby formula), Plus Mesotrione at 100 g ai/ha",[1]; pendimethalin 140 g ai/ha + mesotrione 100 g ai/ha,22%
same,"Expected weed control (Colby formula), Plus Mesotrione at 100 g ai/ha",[1]; pendimethalin 280 g ai/ha + mesotrione 100 g ai/ha,22%
same,"Actual weed control, Plus Mesotrione at 100 g ai/ha",[1]; pendimethalin (Prowl H2O) 140 g ai/ha + mesotrione (Callisto 480SE) 100 g ai/ha,35* %
same,"Actual weed control, Plus Mesotrione at 100 g ai/ha",[1]; pendimethalin (Prowl H2O) 280 g ai/ha + mesotrione (Callisto 480SE) 100 g ai/ha,37* %
same,"Actual weed control, Plus Mesotrione at 100 g ai/ha",[2]; [4],67* %
same,"Expected weed control (Colby formula), Plus Mesotrione at 100 g ai/ha",[2]; [4],48%
same,"Actual weed control, Plus Mesotrione at 200 g ai/ha",[2]; [5],95* %
same,"Expected weed control (Colby formula), Plus Mesotrione at 200 g ai/ha",[2]; [5],80%
same,"Actual weed control, Plus Mesotrione at 100 g ai/ha",[2]; [6],87* %
same,"Expected weed control (Colby formula), Plus Mesotrione at 100 g ai/ha",[2]; [6],49%
same,"Actual weed control, Plus Mesotrione at 200 g ai/ha",[2]; [7],100* %
same,"Expected weed control (Colby formula), Plus Mesotrione at 200 g ai/ha",[2]; [7],80%
same,"Actual weed control, Plus Mesotrione at 200 g ai/ha",[3],93* %
same,"Expected weed control (Colby formula), Plus Mesotrione at 200 g ai/ha",[3],76%
